# In ChEMBL document CHEMBL3526135, “Induction of xenobiotic receptors, transporters, and drug metabolizing enzymes by oxycodone” (Drug Metab Dispos, 2013):
# Columns and labels:
# Type in all cases: ADME, organism-based
# Set-up in all cases: dose 15 mg/kg, route intraperitoneal
# ABCB1 = experiment: Upregulation of ABCB1 protein expression in Sprague-Dawley rat liver microsomes at 15 mg/kg, ip administered twice daily every 12 hrs for 8 days by Western blot analysis relative to control; conditions: read-out: FC
# CYP2a1 = experiment: Effect on CYP2a1 mRNA expression in Sprague-Dawley rat liver at 15 mg/kg, ip administered twice daily every 12 hrs for 8 days by microarray analysis relative to control; conditions: read-out: FC
# Rattus norvegicus [1] = experiment: Effect on Fkbp5 mRNA expression in Sprague-Dawley rat liver at 15 mg/kg, ip administered twice daily every 12 hrs for 8 days by qRT-PCR analysis relative to control; conditions: in vivo
# Rattus norvegicus [2] = experiment: Effect on CYP3a1 mRNA expression in Sprague-Dawley rat liver at 15 mg/kg, ip administered twice daily every 12 hrs for 8 days by qRT-PCR analysis relative to control; conditions: in vivo
# Slc37a4 = experiment: Effect on Slc37a4 mRNA expression in Sprague-Dawley rat liver at 15 mg/kg, ip administered twice daily every 12 hrs for 8 days by microarray analysis relative to control; conditions: read-out: FC
# CYP17a1 = experiment: Effect on CYP17a1 mRNA expression in Sprague-Dawley rat liver at 15 mg/kg, ip administered twice daily every 12 hrs for 8 days by microarray analysis relative to control; conditions: read-out: FC
# FMO1 = experiment: Effect on FMO1 mRNA expression in Sprague-Dawley rat liver at 15 mg/kg, ip administered twice daily every 12 hrs for 8 days by microarray analysis relative to control; conditions: read-out: FC
# Slc17a5 = experiment: Effect on Slc17a5 mRNA expression in Sprague-Dawley rat liver at 15 mg/kg, ip administered twice daily every 12 hrs for 8 days by microarray analysis relative to control; conditions: read-out: FC
# Abcb4 = experiment: Effect on Abcb4 mRNA expression in Sprague-Dawley rat liver at 15 mg/kg, ip administered twice daily every 12 hrs for 8 days by microarray analysis relative to control; conditions: read-out: FC
# Slc25a15 = experiment: Effect on Slc25a15 mRNA expression in Sprague-Dawley rat liver at 15 mg/kg, ip administered twice daily every 12 hrs for 8 days by microarray analysis relative to control; conditions: read-out: FC
# Slc21a10 = experiment: Effect on Slc21a10 mRNA expression in Sprague-Dawley rat liver at 15 mg/kg, ip administered twice daily every 12 hrs for 8 days by microarray analysis relative to control; conditions: read-out: FC
# CYP4a10 = experiment: Effect on CYP4a10 mRNA expression in Sprague-Dawley rat liver at 15 mg/kg, ip administered twice daily every 12 hrs for 8 days by microarray analysis relative to control; conditions: read-out: FC
# Yc2/Gsta5 = experiment: Effect on Yc2/Gsta5 mRNA expression in Sprague-Dawley rat liver at 15 mg/kg, ip administered twice daily every 12 hrs for 8 days by microarray analysis relative to control; conditions: read-out: FC
# Slc1a2 = experiment: Effect on Slc1a2 mRNA expression in Sprague-Dawley rat liver at 15 mg/kg, ip administered twice daily every 12 hrs for 8 days by microarray analysis relative to control; conditions: read-out: FC
# Abcg5 = experiment: Effect on Abcg5 mRNA expression in Sprague-Dawley rat liver at 15 mg/kg, ip administered twice daily every 12 hrs for 8 days by microarray analysis relative to control; conditions: read-out: FC
# Rattus norvegicus [3] = experiment: Effect on Slc15a3 mRNA expression in Sprague-Dawley rat liver at 15 mg/kg, ip administered twice daily every 12 hrs for 8 days by qRT-PCR analysis relative to control; conditions: in vivo
# Slc38a4 = experiment: Effect on Slc38a4 mRNA expression in Sprague-Dawley rat liver at 15 mg/kg, ip administered twice daily every 12 hrs for 8 days by microarray analysis relative to control; conditions: read-out: FC
# Ugt1a1 = experiment: Effect on Ugt1a1 mRNA expression in Sprague-Dawley rat liver at 15 mg/kg, ip administered twice daily every 12 hrs for 8 days by microarray analysis relative to control; conditions: read-out: FC
# CYP2e1 = experiment: Effect on CYP2e1 mRNA expression in Sprague-Dawley rat liver at 15 mg/kg, ip administered twice daily every 12 hrs for 8 days by microarray analysis relative to control; conditions: read-out: FC
# CYP3a1 [4] = experiment: Effect on CYP3a1 mRNA expression in Sprague-Dawley rat liver at 15 mg/kg, ip administered twice daily every 12 hrs for 8 days by microarray analysis relative to control; conditions: read-out: FC
# Slc2a2 = experiment: Effect on Slc2a2 mRNA expression in Sprague-Dawley rat liver at 15 mg/kg, ip administered twice daily every 12 hrs for 8 days by microarray analysis relative to control; conditions: read-out: FC
# Slc22a5 = experiment: Effect on Slc22a5 mRNA expression in Sprague-Dawley rat liver at 15 mg/kg, ip administered twice daily every 12 hrs for 8 days by microarray analysis relative to control; conditions: read-out: FC
# NR1I3 = experiment: Effect on NR1I3 mRNA expression in Sprague-Dawley rat liver at 15 mg/kg, ip administered twice daily every 12 hrs for 8 days by microarray analysis relative to control; conditions: read-out: FC
# Rattus norvegicus [5] = experiment: Effect on Abcb1a mRNA expression in Sprague-Dawley rat liver at 15 mg/kg, ip administered twice daily every 12 hrs for 8 days by qRT-PCR analysis relative to control; conditions: in vivo
# Abcb1a = experiment: Effect on Abcb1a mRNA expression in Sprague-Dawley rat liver at 15 mg/kg, ip administered twice daily every 12 hrs for 8 days by microarray analysis relative to control; conditions: read-out: FC
# Rattus norvegicus [6] = experiment: Effect on Slc38a4 mRNA expression in Sprague-Dawley rat liver at 15 mg/kg, ip administered twice daily every 12 hrs for 8 days by qRT-PCR analysis relative to control; conditions: in vivo
# CYP3A1 [7] = experiment: Upregulation of CYP3A1 protein expression in Sprague-Dawley rat liver microsomes at 15 mg/kg, ip administered twice daily every 12 hrs for 8 days by Western blot analysis relative to control; conditions: read-out: FC
# Rattus norvegicus [8] = experiment: Effect on CYP2d1 mRNA expression in Sprague-Dawley rat liver at 15 mg/kg, ip administered twice daily every 12 hrs for 8 days by qRT-PCR analysis relative to control; conditions: in vivo
# Rattus norvegicus [9] = experiment: Effect on Slc22a8 mRNA expression in Sprague-Dawley rat liver at 15 mg/kg, ip administered twice daily every 12 hrs for 8 days by qRT-PCR analysis relative to control; conditions: in vivo
# Rattus norvegicus [10] = experiment: Effect on CYP17a1 mRNA expression in Sprague-Dawley rat liver at 15 mg/kg, ip administered twice daily every 12 hrs for 8 days by qRT-PCR analysis relative to control; conditions: in vivo
# CYP27a1 = experiment: Effect on CYP27a1 mRNA expression in Sprague-Dawley rat liver at 15 mg/kg, ip administered twice daily every 12 hrs for 8 days by microarray analysis relative to control; conditions: read-out: FC
# Rattus norvegicus [11] = experiment: Effect on Ces2 mRNA expression in Sprague-Dawley rat liver at 15 mg/kg, ip administered twice daily every 12 hrs for 8 days by qRT-PCR analysis relative to control; conditions: in vivo
# Rattus norvegicus [12] = experiment: Effect on CYP2b2 mRNA expression in Sprague-Dawley rat liver at 15 mg/kg, ip administered twice daily every 12 hrs for 8 days by qRT-PCR analysis relative to control; conditions: in vivo
compound,measurement,setting,value
COc1ccc2c3c1O[C@H]1C(=O)CC[C@@]4(O)[C@@H](C2)N(C)CC[C@]314.Cl [OXYCODONE HYDROCHLORIDE],fold induction at 8 days,ABCB1,3
same,fold induction at 8 days,CYP2a1,1.7
same,Activity,Rattus norvegicus [1],Active
same,Activity,Rattus norvegicus [2],Active
same,fold induction at 8 days,Slc37a4,2
same,fold induction at 8 days,CYP17a1,17.1
same,fold induction at 8 days,FMO1,3.7
same,fold induction at 8 days,Slc17a5,1.5
same,fold induction at 8 days,Abcb4,1.5
same,fold induction at 8 days,Slc25a15,2.1
same,fold induction at 8 days,Slc21a10,1.5
same,fold induction at 8 days,CYP4a10,2
same,fold induction at 8 days,Yc2/Gsta5,7
same,fold induction at 8 days,Slc1a2,2.4
same,fold induction at 8 days,Abcg5,3.6
same,Activity,Rattus norvegicus [3],Active
same,fold induction at 8 days,Slc38a4,1.8
same,fold induction at 8 days,Ugt1a1,1.6
same,fold induction at 8 days,CYP2e1,1.5
same,fold induction at 8 days,CYP3a1 [4],1.7
same,fold induction at 8 days,Slc2a2,1.5
same,fold induction at 8 days,Slc22a5,2.8
same,fold induction at 8 days,NR1I3,6.1
same,Activity,Rattus norvegicus [5],Active
same,fold induction at 8 days,Abcb1a,2.8
same,Activity,Rattus norvegicus [6],Active
same,fold induction at 8 days,CYP3A1 [7],12.2
same,Activity,Rattus norvegicus [8],Active
same,Activity,Rattus norvegicus [9],Active
same,Activity,Rattus norvegicus [10],Active
same,fold induction at 8 days,CYP27a1,1.9
same,Activity,Rattus norvegicus [11],Active
same,Activity,Rattus norvegicus [12],Active
